Experimental data: US12138322B2, “Method of preventing the development of melanoma” (Vector Vitale IP LLC, priority 2019, dated 2024)
Marks after values point to notes of the source that are not given here.

Tested on: B16 melanoma cells
Test: Experimental model of hematogenous B16 melanoma metastasis (lungs), intravenous administration
Format: in vivo, C57Bl mice
Details: IV 60 μg/mouse; for Number of animals in the group with metastases / Number of metastases/mouse (M ± m) / Volume of metastases/mouse (M ± m): lungs at day 26
Experimental: An experimental model of hematogenous metastasis was used in the experiment which allowed for the inoculation of B16 melanoma cells. The characteristic of these cells is given in Example 1. The cells were cultured in vitro under standard conditions. For transplantation, tumor cells were removed from the substrate with 0.02% Versene solution and the suspension cellularity and viability were evaluated in the presence of trypan blue in a hemocytometer and the suspension was adjusted to a concentration of […]. Melanoma cells were injected intracutaneously (IC) in 0.05 ml of suspension (0.5×10^6 cells/mouse) into the back area of the animal. Part of the coat on the back of mice was removed with a depilatory cream at 24 hours before tumor cell inoculation. Cells isolated from B16 mouse melanoma were used in the experiment. Cells were cultured in vitro under standard conditions. For inoculation, tumor cells were removed from the substrate with 0.02% Versene solution. The cellularity and viability of the obtained cell suspension were evaluated with a hemocytometer in presence of a trypan blue. Cell concentration was adjusted with saline to 1×10^6 cells/ml. Melanoma cells were injected IV in 0.2 ml of suspension (0.2×10^6 cells/mouse) into the lateral tail vein.
^64Zne(Asp)2 was dissolved in deuterium-depleted water. The composition was injected intravenously using a microinjection syringe at a dose of 60 μg of ^64Zne/mouse: two injections at a dose of 30 μg/mouse, each in a volume of 0.3 ml (0.6 ml in total), for 4 hours. The injections were given every other day for 10 days (5 injections in total). The first injection of the inventive composition was given 45 minutes or 24 hours after inoculation of tumor cells. At day 26 after IV injection of tumor cells the lungs were excised from all animals in each group and the number and volume of metastases were then determined. C57Bl mice (8 mice per group) at the age of 12-14 weeks, weighing 25-27 g were used in the experiment. The conditions in which animals were maintained are described in Example 1 above.
The ^64Zne(Asp)2 composition was injected intravenously into the animal's lateral tail vein using a Micro-Fine Plus microinjection syringe (Becton Dickinson). The injection site was cleaned with 96% ethanol.
The animals were divided into experimental groups as follows: • Group No. 1: control group, mice injected IV with B16 melanoma cells+IV injection of the solvent (deuterium-depleted water); • Group No. 2: mice injected IV with B16 melanoma cells+IV injection of ^64Zne(Asp)2 24 hours after the tumor cells were inoculated; • Group No. 3: mice injected IV with B16 melanoma cells+IV injection of ^64Zne(Asp)2 45 minutes after the tumor cells were inoculated
On day 26 after IV injection of tumor cells the lungs were excised from all animals in each group and the number and volume of metastases were then determined.
The volume of metastases was calculated using the following formula for the volume of a sphere:
V= 4/3×πr^3, where V is the metastasis volume (mm^3); r is the metastasis radius (mm).

[1] = first injection 45 min after tumor cells were inoculated
[2] = first injection 24 hours after tumor cells were inoculated

## N[C@@H](CC(=O)[O-])C(=O)[O-].[Zn+2] [^64Zne(Asp)2, Zinc L-aspartate]
45 min or 24 hours after inoculation
  number and volume of metastases vs. control: statistically significant decrease
[1]
  Number of animals in the group with metastases: 75%
  Number of metastases/mouse (M ± m): 4 ± 2
  Volume of metastases/mouse (M ± m): 2.5 ± 1.7* mm^3
[2]
  Number of animals in the group with metastases: 75%
  Number of metastases/mouse (M ± m): 6.4 ± 2.5
  Volume of metastases/mouse (M ± m): 3.3 ± 2* mm^3
